Measured values reported in patent US20250059185A1 (Hoffmann-La Roche Inc., priority 2021, published 2025).

target: MAGL (Homo sapiens (Human), UniProt Q99685); experiment: 2-AG assay (MAGL inhibitory activity, hydrolysis of 2-arachidonoylglycerol followed by mass spectrometry); format: biochemical; details: 50 pM MAGL protein, 15 min pre-incubation, 30 min incubation at RT
Summary of the method: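 Human MAGL (50 pM final) preincubated 15 min at RT with compound (3-fold dilutions, 12.5 μM to 0.8 pM final) in 50 mM TRIS, 1 mM EDTA, 0.01% Tween-20, 2.5% DMSO. Reaction with […] 2-AG ran 30 min at RT, then was quenched with acetonitrile containing d8-arachidonic acid. Arachidonic acid measured by SPE–triple-quad MS (negative ESI), activity from the arachidonic/d8-arachidonic acid intensity ratio.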

Chain of MAGL (Q99685 whole entry, species assumed): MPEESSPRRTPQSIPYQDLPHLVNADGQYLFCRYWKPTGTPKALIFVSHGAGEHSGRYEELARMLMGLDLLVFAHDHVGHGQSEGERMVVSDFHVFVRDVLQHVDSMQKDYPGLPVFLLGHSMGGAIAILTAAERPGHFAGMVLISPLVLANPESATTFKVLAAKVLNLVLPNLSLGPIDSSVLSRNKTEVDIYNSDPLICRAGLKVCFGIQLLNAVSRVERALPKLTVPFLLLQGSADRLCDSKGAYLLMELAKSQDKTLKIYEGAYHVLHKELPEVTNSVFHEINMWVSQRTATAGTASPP

Structure (SMILES)	IC50
C[C@@H]1c2nn(C)c(-c3cncc(C(F)(F)F)n3)c2CCN1C(=O)c1cc(F)cc(N2CC3(C2)CS(=O)(=O)C3)c1Cl [Example 66, [2-chloro-3-(2,2-dioxo-2λ^6-thia-6-azaspiro[3.3]heptan-6-yl)-5-fluoro-phenyl]-[(7R)-2,7-dimethyl-3-[6-(trifluoromethyl)pyrazin-2-yl]-5,7-dihydro-4H-pyrazolo[3,4-c]pyridin-6-yl]methanone]	3.24 µM
C[C@H]1c2nn(C)c(-c3cc(F)cc(F)c3)c2CCN1C(=O)c1cc(F)cc(N2CC3(CCN3)C2)c1Cl [Example 111, [2-chloro-3-(1,6-diazaspiro[3.3]heptan-6-yl)-5-fluoro-phenyl]-[(7S)-3-(3,5-difluorophenyl)-2,7-dimethyl-5,7-dihydro-4H-pyrazolo[3,4-c]pyridin-6-yl]methanone;2,2,2-trifluoroacetic acid]	0.0516 µM
C[C@@H]1c2nn(C)c(-c3cc(F)cc(F)c3)c2CCN1C(=O)c1cc(F)cc(CCc2cn[nH]c2)c1Cl [Example 103, [2-chloro-5-fluoro-3-[2-(1H-pyrazol-4-yl)ethyl]phenyl]-[(7R)-3-(3,5-difluorophenyl)-2,7-dimethyl-5,7-dihydro-4H-pyrazolo[3,4-c]pyridin-6-yl]methanone]	0.44 µM
C[C@@H]1c2nn(C)c(-c3cc(F)cc(F)c3)c2CCN1C(=O)c1ncn(-c2cc(Cl)cnc2O)n1 [Example 101, [1-(5-chloro-2-hydroxy-3-pyridyl)-1,2,4-triazol-3-yl]-[(7R)-3-(3,5-difluorophenyl)-2,7-dimethyl-5,7-dihydro-4H-pyrazolo[3,4-c]pyridin-6-yl]methanone]	3.02 µM
C[C@H]1c2nn(C)c(-c3cc(F)cc(F)c3)c2CCN1C(=O)c1cc(F)cc(OC[C@@H]2CNC(=O)N2)c1Cl (single isomer, unassigned) [Example 114]	0.929 µM
C[C@H]1c2nn(C)c(-c3cc(F)cc(F)c3)c2CCN1C(=O)c1ncn(-c2ccnc(O)c2)n1 [Example 112, [(7S)-3-(3,5-difluorophenyl)-2,7-dimethyl-5,7-dihydro-4H-pyrazolo[3,4-c]pyridin-6-yl]-[1-(2-hydroxy-4-pyridyl)-1,2,4-triazol-3-yl]methanone]	1.66 µM
C[C@H]1c2nn(C)c(-c3cc(F)cc(F)c3)c2CCN1C(=O)c1cc(Cl)cc(OC[C@@H]2CNC(=O)O2)c1Cl (single isomer, unassigned) [Example 108]	0.294 µM

Second part, the compound after the results:

IC50	Structure (SMILES)
0.007 µM	CC1c2nn(C)c(-c3cc(Cl)cc(C4(NS(C)(=O)=O)CC4)c3)c2CCN1C(=O)c1cc(F)cc(-c2ccc(=O)[nH]c2)c1Cl (centres unmarked) [Example 55, N-[1-[3-Chloro-5-[6-[2-chloro-5-fluoro-3-(6-oxo-1H-pyridin-3-yl)benzoyl]-2,7-dimethyl-5,7-dihydro-4H-pyrazolo[3,4-c]pyridin-3-yl]phenyl]cyclopropyl]methanesulfonamide]
0.00815 µM	CC1c2nn(C)c(-c3cc(Cl)cc(C4(NS(C)(=O)=O)CC4)c3)c2CCN1C(=O)c1cc(F)cc(CCc2c[nH]nn2)c1Cl (centres unmarked) [Example 87, N-[1-[3-chloro-5-[6-[2-chloro-5-fluoro-3-[2-(H-triazol-4-yl)ethyl]benzoyl]-2,7-dimethyl-5,7-dihydro-4H-pyrazolo[3,4-c]pyridin-3-yl]phenyl]cyclopropyl]methanesulfonamide]
0.293 µM	C[C@@H]1c2nn(C)c(-c3cc(Cl)cc(C4(S(C)(=O)=O)CC4)c3)c2CCN1C(=O)c1cc(F)cc(-c2ccc(=O)[nH]c2)c1Cl [Example 74, 5-[2-chloro-3-[(7R)-3-[3-chloro-5-(1-methylsulfonylcyclopropyl)phenyl]-2,7-dimethyl-5,7-dihydro-4H-pyrazolo[3,4-c]pyridine-6-carbonyl]-5-fluoro-phenyl]-1H-pyridin-2-one]
0.145 µM	C[C@H]1c2nn(C)c(-c3cc(Cl)cc(C4(S(C)(=O)=O)CC4)c3)c2CCN1C(=O)c1cc(F)cc(-c2ccc(=O)[nH]c2)c1Cl [Example 73, 5-[2-chloro-3-[(7S)-3-[3-chloro-5-(1-methylsulfonylcyclopropyl)phenyl]-2,7-dimethyl-5,7-dihydro-4H-pyrazolo[3,4-c]pyridine-6-carbonyl]-5-fluoro-phenyl]-1H-pyridin-2-one]
